Measurements: article PMC6838151 (Scientific Reports, 2019)
Values after ≈ are worked out from the molar mass of the structure shown. Read-outs that look alike come from different tables or passages of the source.

Experiments:
[1] = tested on: S. cerevisiae WT (BY4741); experiment: MIC50 growth inhibition, S. cerevisiae wt BY4741, 48 h; type: cell-based, Saccharomyces cerevisiae; conditions: YPD, 30 °C
Source text: For the preliminary studies of the biological activity of the studied compound we chose S. cerevisiae, which is generally considered a non-pathogenic organism, but currently recognized as a potentially important agent causing opportunistic infections against immunocompromised patients. In order to assess whether all the Ke derivatives share the mechanism of action with the parent compound, or if they might present different or additional modes of action, the inhibitory concentration MIC50 (Table 2) was determined on the basis of the dose-response curves (Fig. S11 in ESI) in a 48 h assay against S. cerevisiae wt strain BY4741 and the deletion mutant erg6Δ, which lacks the gene coding for the S-adenosylmethionine: 24-methyltransferase[52], accumulating cholesta-5,7,24-trienol and zymosterol instead of ergosterol. There are several studies reporting that the ERG6 gene deletion may increase the resistance of S. cerevisiae cells to azole compounds[54]–[56]. […] The value determined for the wt strain is in very good agreement with previous studies carried out under similar condition (48 h, 30 °C) (e.g.[57]).
The following strains of S. cerevisiae were used in this study: BY4741 (wild type towards erg6Δ, ACC Y00000; MATa; his3Δ1; leu2Δ0; met15Δ0; ura3Δ0), erg6Δ (ACC Y00568; BY4741 isogenic with YML008c::kanMX4), W303 (wild type towards AD1-8; MATα; leu2-3,112 trp1-1 can1-100 ura3-1 ade2-1 his3-11,15 AD1-8 (W303 isogenic with pdr1-3, ura3, his1, yor1∆::hisG, snq2∆::hisG, pdr5∆::hisG, pdr10∆::hisG, pdr11∆:: hisG, ycf1∆::hisG, pdr3∆::hisG, pdr15∆::hisG). BY4741 and erg6Δ were acquired from EUROSCARF, Frankfurt, Germany; W303 and AD1-8 were kind gifts from Prof. A. Goffeau, Chaire Internationale Blaise Pascal, Lab. Genet. Mol., École Normale Supérieure, Paris, and Prof. M. Ghislain, Université Catholique de Louvain, Faculté des sciences Agronomiques, Louvain-la-Neuve, Belgium. Visible turbid overnight cultures of S. cerevisiae strains were prepared and diluted to A600 ≈ 0.1 in fresh Yeast Extract – Peptone - Dextrose (YPD) medium. The cultures were transferred to 96 microtiter well plates containing aliquots of serially diluted antifungal drugs (Ke and its derivatives: KeP, KeOP, KeSP, KeSeP), prepared from DMS stock solutions and drug-free controls. The yeast cultures were statically incubated at 30 °C for 48 hours with compounds[88]. The dose-response curves were analysed with GraphPad Prism 5 software (San Diego, USA) or a microplate reader ASYS UVM (Biogenet). All values presented are the mean of at least three independent experiments.

[2] = tested on: hASCs (p53, p21, BAX, BCL-2 transcripts); experiment: Apoptosis-related transcripts by qRT-PCR in hASCs; type: cell-based, human; conditions: 20 µM, 24 h; for expression of p53 gene / expression of p21 transcript / relative expression level of BAX / relative expression level of BCL-2: hASCs; for expression of p53 gene: vs control cells; for expression of p21 transcript: vs control group, p < 0.001; for relative expression level of BAX / relative expression level of BCL-2: vs control, differences not significant
Description: Cellular apoptosis level was assessed using quantitative reverse transcriptase real-time polymerase chain reaction (qRT-PCR). First, the cells were seeded in a 24-well plate at a concentration of 3 × 10^4 cells/well in DMEM with Nutrient F-12 Ham complete medium and left in the CO2 incubator overnight to allow cells to attach. […] After 24 h of challenge with the compounds, the cells were homogenized with TRI Reagent and total RNA was isolated by phenol-chloroform extraction and ethanol precipitation. RNA purity and quantity were measured at a wavelength of 260 and 280 nm (Epoch, Biotek). Genomic DNA was removed with DNase I, RNase-free ([…]) (Thermo Scientific, Poland) and cDNA was synthesized using RevertAid First Strand cDNA Synthesis Kit (Thermo Scientific, Poland). 150 ng of total RNA served as a template for a single reaction using T100 Thermo Cycler (Bio-Rad, USA). The expression levels of p53 tumor suppressor, cyclin dependent kinase inhibitor 1A (p21), apoptosis regulators BAX and BCL-2 were determined. qRT-PCR was performed on a CFX Connect^TM Real-Time PCR Detection System (Bio-Rad) using SensiFast SYBR & Fluorescein Kit (Bioline, Cincinnati, OH, USA) and primer pairs as listed in Table S4 in ESI. 500 nM of specific primers and 1 µL of cDNA in a 10 µL final volume were applied in each reaction. The quantitative expression of the genes was calculated by the 2^−ΔΔCT method using GAPDH as housekeeping genes.
Statistical analysis was performed with GraphPad Prism 5 software (San Diego, USA). All data values are presented as mean ± SD, measured in triplicates or more. Statistical significance between groups was determined using two-way ANOVA grouped analysis.

[3] = Cytotoxicity IC50, TOX-8 resazurin assay, hASCs, 24 h; type: cell-based, human; conditions: female, human
Description: Human Adipose Tissue-derived Stem Cells (hASCs) were isolated from subcutaneous adipose tissue fragments harvested from non-diabetic female donors (age range 33–38, n = 2) during standard surgical procedure of total hip arthroplasty. Immediately after collection of tissue, the samples were placed in sterile tissue-transport medium (Hank’s Balanced Salt Solution (HBSS) supplemented with 1% Penicillin/Streptomycin/Amphotericin B solution (P/S/A). Mesenchymal stromal cell isolation was performed using enzymatic digestion of extracellular matrix with collagenase type I. Before digestion, tissue specimens were washed twice with HBSS and incubated in collagenase type I solution (1 mg/mL) at 37 °C for 40 min. The digest was subsequently centrifuged (1200 × g; 10 minutes; room temperature) and the cell pellet was resuspended in Dulbecco’s modified Eagle’s medium (DMEM) with Nutrient F-12 Ham, 10% of Fetal Bovine Serum (FBS), and 1% of P/S/A, transferred to a culture flask, and kept in culture under optimal conditions (37 °C in a humidified atmosphere of 5% CO2). The medium was refreshed every 2–3 days. At 80–90% confluence, the cells were passaged using trypsin solution (TrypLE Express, Life Technologies, California, USA). At passage 3, hASCs were collected and cellular phenotype was confirmed by the high expression of markers CD44, CD29, CD73, CD105 and low expression of CD45. Moreover, the trilineage differentiation capacity of ASCs was confirmed as previously described.
The IC50 values were determined using in vitro Toxicology TOX-8 Assay Kit (resazurin based) according to the manufacturer’s protocol. For this assay, cells were seeded in a 96-well plate at a density of 5 × 10^3 cells/well. The cells were pre-incubated in drug-free complete medium for 24 h before adding various concentrations of the compounds to be investigated. Stock solutions of the compounds were prepared in DMSO following serial dilutions in DMEM with Nutrient F-12 Ham complete medium. The cells exposure period was 24 h. After that time media were replaced with 10% v/v resazurin dye solution in fresh complete culture medium. Incubation was carried out for 2 h at 37 °C in the CO2 incubator. Reduction of the dye was measured spectrophotometrically at 600 nm and 690 nm reference wavelength (Epoch, Biotek). Absorbance measurements allowed the determination of viable treated cells relative to untreated controls using the inflection point of a dose-response graph. IC50 values were estimated as duplicates of triplicate readings in two independent experiments.

[4] = Saccharomyces cerevisiae, read-out: MIC50
[5] = hASCs, TOX-8 assay, 24 h, read-out: IC50 (cytotoxicity, hASCs viability)

SMILES	MIC50 [1, 4] [µM]	induction of apoptosis in hASC cultures [2]	expression of p53 gene [2]	expression of p21 transcript [2]	relative expression level of BAX [2]	relative expression level of BCL-2 [2]	IC50 at 24 h ([3]; IC50 (cytotoxicity, hASCs viability)) [µM]	IC50 at 24 h [3, 5] [µM]	MIC50 [1]
O=P(CN1CCN(c2ccc(OC[C@H]3CO[C@](Cn4ccnc4)(c4ccc(Cl)cc4Cl)O3)cc2)CC1)(c1ccccc1)c1ccccc1 (racemic) [KeOP, Ph2P(O)CH2-Ke]	0.00416 (≈ 0.00293 µg/mL)	did not induce apoptosis	no significant changes	elevated expression	higher	higher			
Clc1ccc([C@@]2(Cn3ccnc3)OC[C@H](COc3ccc(N4CCN(CP(c5ccccc5)c5ccccc5)CC4)cc3)O2)c(Cl)c1 (racemic) [KeP, Ph2PCH2-Ke]	9.02 (≈ 6.2 µg/mL)	did not induce apoptosis	no significant changes	elevated expression	higher	higher	37.6		
CC(=O)N1CCN(c2ccc(OCC3COC(Cn4ccnc4)(c4ccc(Cl)cc4Cl)O3)cc2)CC1 (stereo not shown) [Ke, ketoconazole, reference compound]	0.865 (≈ 0.46 µg/mL)	did not induce apoptosis	no significant changes	elevated expression				121	
S=P(CN1CCN(c2ccc(OC[C@H]3CO[C@](Cn4ccnc4)(c4ccc(Cl)cc4Cl)O3)cc2)CC1)(c1ccccc1)c1ccccc1 [KeSP, Ph2P(S)CH2-Ke]	> 200								inactive
Clc1ccc([C@@]2(Cn3ccnc3)OC[C@H](COc3ccc(N4CCN(CP(=[Se])(c5ccccc5)c5ccccc5)CC4)cc3)O2)c(Cl)c1 [KeSeP, Ph2P(Se)CH2-Ke]	1.24 (≈ 0.954 µg/mL)							110	
